Measurements published in patent publication US6391890B1, “Heterocyclic compounds” (Novo Nordisk A/S, priority 1997, dated 2002).
Where a name gives a salt, the structure may show the parent alone.

Legend:
[1] = tested on: histamine induced paw oedema; experiment: Histamine induced paw oedema (rat, water plethysmography); assay type: in vivo; settings: 1.0 mg/kg intraperitoneally, male Sprague-Dawley rats, paw swelling 20 minutes after histamine
Protocol: I. Histamine Induced Paw Oedema The rat histamine paw oedema test was performed essentially as described by Amann et al. (Europ. J. Pharmacol. 279, 227-231, 1995). In brief 250-300 g male Sprague-Dawley rats were anaesthetized with pentobarbital sodium, and placed on a 32 degree heated table. Ten minutes later histamine (50 micoliter, 3 mg/ml) was injected in the right hind paw and 20 minutes hereafter the paw swelling was determined by water plethysmography (Ugo Basile). Test compounds were administered intraperitoneally at 15 minutes before the anaesthetics.

[2] = tested on: histamine induced blood glucose rise; experiment: Histamine induced hyperglycemia in mice; assay type: in vivo; settings: 1.0 mg/kg ip 30 min before histamine icv, male NMRI mice, blood glucose at 40 min
Protocol: II. Histamine Induced Hyperglycemia in Mice
Conscious unfasted 25 g male NMRI mice are administered histamine chloride (90 nmol) icv according to the method of Nishibori et al. (J. Pharmacol. Exp. Therap. 241, 582-286,1987). Blood glucose is determined at time 0 and 40 min after the histamine injection. Test compounds are administered at 1.0 mg/kg ip 30 min before the histamine injection, and % inhibition refers to the capacity of the compounds to inhibit the histamine induced blood glucose rise.

| SMILES | melting point | Inhibition of histamine induced paw oedema, % inhibition [1] | Inhibition of histamine induced hyperglycemia, % inhibition [2] |
| --- | --- | --- | --- |
| Cl.O=C(O)CCN1CCC(=C2c3ccccc3CSc3ccccc32)CC1 | 176 to 186 °C (dec.) |  |  |
| Cl.O=C(O)CN1CCC(=C2c3ccccc3CSc3ccccc32)CC1 | 170 to 175 °C |  |  |
| Cl.O=C(O)CCN1CCN(C2c3ccccc3CCc3ccccc32)CC1 [Example 2, 3-(4-(10,11-Dihydro-5H-dibenzo[a,d]cyclohepten-5-yl)piperazin-1-yl)propionic acid hydrochloride] |  | 44% |  |
| Cl.O=C(O)CCN1CCC(=C2c3ccccc3CCc3ccccc32)CC1 [Example 10, 3-(4-(10,11-Dihydro-5H-dibenzo[a,d]cyclohepten-5-ylidene)-1-piperidine)propionic acid hydrochloride] |  | 33% | 69% |

Further lines, with some results ahead:

| melting point | SMILES | Inhibition of histamine induced paw oedema, % inhibition [1] | Inhibition of histamine induced hyperglycemia, % inhibition [2] |
| --- | --- | --- | --- |
| 245 to 255 °C (dec.) | O=C(O)C1CCCN(CCCN2CCC(=C3c4ccccc4CSc4ccccc43)CC2)C1 (stereo not shown) (as salt: hydrochloride) |  |  |
| 127 to 130 °C | O=C(O)[C@@H]1CCCN(CCN2CCC(=C3c4ccccc4CSc4ccccc43)CC2)C1 (as salt: hydrochloride) |  |  |
